Several values for one entry are separate records, joined by “and”; a condition that tells them apart may be missing. Identical values can stand only once. Inconclusive results and toxic doses are left out.
Test system: P388 leukemia ip, CD2F1 mice, survival T/C
Test: NCI In Vivo Anticancer Drug Screen. Data for tumor model P388 Leukemia (intraperitoneal) in CD2F1 (CDF1) mice
Conditions: endpoint: median survival time, higher = longer survival
Experimental: The antitumor activity of compounds was measured in mice bearing transplantable tumors. Survival or tumor size were measured and the results are expressed as the measurement made in the treated group (T) divided by the measurement made in the vehicle treated control group (C). The tumor model used in this assay is P388 Leukemia (intraperitoneal) in CD2F1 (CDF1) mice

[1] = dose: 50.0 mg/kg/injection, schedule: Q01DX001 (ip), vehicle: Klucel (hydroxypropylcellulose) (HPC)
[2] = dose: 60.0 mg/kg/injection, schedule: Q01DX005 (ip), vehicle: Klucel (hydroxypropylcellulose) (HPC)
[3] = dose: 100.0 mg/kg/injection, schedule: Q04DX002 (ip), vehicle: Klucel (hydroxypropylcellulose) (HPC)
[4] = dose: 120.0 mg/kg/injection, schedule: Q01DX005 (ip), vehicle: Klucel (hydroxypropylcellulose) (HPC)
[5] = dose: 200.0 mg/kg/injection, schedule: Q04DX002 (ip), vehicle: Klucel (hydroxypropylcellulose) (HPC)
[6] = dose: 240.0 mg/kg/injection, schedule: Q01DX005 (ip), vehicle: Klucel (hydroxypropylcellulose) (HPC)
[7] = dose: 50.0 mg/kg/injection, schedule: Q01DX009 (ip), vehicle: saline
[8] = dose: 100.0 mg/kg/injection, schedule: Q01DX009 (ip), vehicle: saline
[9] = dose: 200.0 mg/kg/injection, schedule: Q01DX009 (ip), vehicle: saline
[10] = dose: 50.0 mg/kg/injection, schedule: Q01DX009 (ip), vehicle: saline with Tween-80
[11] = dose: 100.0 mg/kg/injection, schedule: Q01DX009 (ip), vehicle: saline with Tween-80
[12] = dose: 200.0 mg/kg/injection, schedule: Q01DX009 (ip), vehicle: saline with Tween-80
[13] = dose: 3.13 mg/kg/injection, schedule: Q01DX009 (ip), vehicle: saline
[14] = dose: 6.25 mg/kg/injection, schedule: Q01DX009 (ip), vehicle: saline
[15] = dose: 50.0 mg/kg/injection, schedule: Q01DX005 (ip), vehicle: saline with Tween-80
[16] = dose: 100.0 mg/kg/injection, schedule: Q01DX005 (ip), vehicle: saline with Tween-80

Compound: Cc1nc2n(c1C(N)=O)CCS2
- T/C [1]: 101 % of control
- T/C [2]: 96 % of control
- T/C (dose: 100.0 mg/kg/injection, schedule: Q01DX001 (ip), vehicle: Klucel (hydroxypropylcellulose) (HPC)): 106 % of control
- T/C [3]: 102 % of control
- T/C [4]: 98 % of control
- T/C (dose: 200.0 mg/kg/injection, schedule: Q01DX001 (ip), vehicle: Klucel (hydroxypropylcellulose) (HPC)): 99 % of control
- T/C [5]: 104 % of control
- T/C [6]: 94 % of control

Compound: COc1ccc(C2CC(=O)NC(N)=N2)c(O)c1 (configuration not stated)
- T/C [7]: 103 % of control
- T/C [8]: 104 % of control
- T/C [9]: 103 % of control

Compound: CCN(CC)C(=O)C(Cc1ccc(OC)c(OC)c1)C(Cc1ccc(OC)c(OC)c1)C(=O)O (configuration not stated)
- T/C (dose: 100.0 mg/kg/injection, schedule: Q04DX003 (ip), vehicle: other): 95 % of control
- T/C (dose: 200.0 mg/kg/injection, schedule: Q04DX003 (ip), vehicle: other): 95 % of control
- T/C (dose: 400.0 mg/kg/injection, schedule: Q04DX003 (ip), vehicle: other): 95 % of control

Compound: Nc1c(-c2ncc[nH]2)[nH]c2cc(-c3ncc[nH]3)ccc12
- T/C (dose: 15.0 mg/kg/injection, schedule: Q01DX005 (ip), vehicle: Klucel (hydroxypropylcellulose) (HPC)): 97 % of control
- T/C (dose: 30.0 mg/kg/injection, schedule: Q01DX005 (ip), vehicle: Klucel (hydroxypropylcellulose) (HPC)): 100 % of control
- T/C [2]: 99 % of control and 101 % of control

Compound: CNCCCCCc1cc(-c2ccc([N+](=O)[O-])cc2)on1
- T/C (dose: 100.0 mg/kg/injection, schedule: Q04DX003 (ip), vehicle: saline with Tween-80): 95 % of control
- T/C (dose: 200.0 mg/kg/injection, schedule: Q04DX003 (ip), vehicle: saline with Tween-80): 100 % of control

Compound: N#CC(C#N)=C1Sc2nc3ccc([N+](=O)[O-])cc3nc2S1
- T/C [7]: 109 % of control
- T/C [8]: 90 % of control
- T/C [9]: 118 % of control

Compound: CC(=O)OC1CC(=O)OC(C)(C)C2CC(=O)C3(C)C(CCC4(C)C(c5ccoc5)OC(=O)C5OC543)C12C (configuration not stated)
- T/C [10]: 99 % of control
- T/C [11]: 97 % of control
- T/C [12]: 97 % of control

Compound: CCC[CH2][Sn]([CH2]CCC)([S]CC(=O)OCc1ccccc1)[S]CC(=O)OCc1ccccc1
- T/C (dose: 12.5 mg/kg/injection, schedule: Q01DX001 (ip), vehicle: Klucel (hydroxypropylcellulose) (HPC)): 108 % of control
- T/C (dose: 25.0 mg/kg/injection, schedule: Q01DX001 (ip), vehicle: Klucel (hydroxypropylcellulose) (HPC)): 116 % of control
- T/C [1]: 108 % of control

Compound: COC1=C(OC)C(=O)C(SCCCCCCC2CCCCC2)=C(Cl)C1=O
- T/C (dose: 0.2 mg/kg/injection, schedule: Q01DX009 (ip), vehicle: saline): 95 % of control
- T/C (dose: 0.4 mg/kg/injection, schedule: Q01DX009 (ip), vehicle: saline): 101 % of control
- T/C (dose: 0.8 mg/kg/injection, schedule: Q01DX009 (ip), vehicle: saline): 101 % of control
- T/C (dose: 1.6 mg/kg/injection, schedule: Q01DX009 (ip), vehicle: saline): 102 % of control
- T/C [13]: 105 % of control
- T/C [14]: 106 % of control

Compound: O=C(O)CCc1nc(-c2ccccc2)nc2c1CCc1ccccc1-2
- T/C [3]: 92 % of control
- T/C [5]: 97 % of control
- T/C (dose: 400.0 mg/kg/injection, schedule: Q04DX002 (ip), vehicle: Klucel (hydroxypropylcellulose) (HPC)): 98 % of control

Compound: CC1=CC(C)(C)N=C2SC(=O)c3cc4c(cc3N12)OCO4
- T/C (dose: 100.0 mg/kg/injection, schedule: Q04DX002 (ip), vehicle: saline with Tween-80): 106 % of control
- T/C (dose: 200.0 mg/kg/injection, schedule: Q04DX002 (ip), vehicle: saline with Tween-80): 98 % of control
- T/C (dose: 400.0 mg/kg/injection, schedule: Q04DX002 (ip), vehicle: saline with Tween-80): 97 % of control

Compound: CC(=O)Cc1ncn(-c2cc(C)on2)n1
- T/C [2]: 111 % of control
- T/C [4]: 113 % of control
- T/C [6]: 100 % of control

Compound: Cc1cc(=O)oc2c3c(c4c(c12)OC(C)(C)C=C4)OC(C)(C)C=C3
- T/C (dose: 60.0 mg/kg/injection, schedule: Q01DX005 (ip), vehicle: saline with Tween-80): 89 % of control
- T/C (dose: 120.0 mg/kg/injection, schedule: Q01DX005 (ip), vehicle: saline with Tween-80): 88 % of control

Compound: CN(C)C1=C(c2ccccc2)C(=O)C(c2ccccc2)=C1c1ccccc1
- T/C (dose: 100.0 mg/kg/injection, schedule: Q04DX003 (ip), vehicle: Klucel (hydroxypropylcellulose) (HPC)): 106 % of control
- T/C (dose: 200.0 mg/kg/injection, schedule: Q04DX003 (ip), vehicle: Klucel (hydroxypropylcellulose) (HPC)): 109 % of control
- T/C (dose: 400.0 mg/kg/injection, schedule: Q04DX003 (ip), vehicle: Klucel (hydroxypropylcellulose) (HPC)): 109 % of control

Compound: C=C1C(=O)OC2C1C(OC(=O)/C(C)=C/C)CC1(C)OC1C1OC1C1(CO1)C2O (configuration not stated)
- T/C (dose: 5.0 mg/kg/injection, schedule: Q01DX005 (ip), vehicle: Klucel (hydroxypropylcellulose) (HPC)): 106 % of control
- T/C (dose: 10.0 mg/kg/injection, schedule: Q01DX005 (ip), vehicle: Klucel (hydroxypropylcellulose) (HPC)): 97 % of control
- T/C (dose: 20.0 mg/kg/injection, schedule: Q01DX005 (ip), vehicle: Klucel (hydroxypropylcellulose) (HPC)): 95 % of control
- T/C (dose: 40.0 mg/kg/injection, schedule: Q01DX005 (ip), vehicle: Klucel (hydroxypropylcellulose) (HPC)): 104 % of control
- T/C (dose: 80.0 mg/kg/injection, schedule: Q01DX005 (ip), vehicle: Klucel (hydroxypropylcellulose) (HPC)): 116 % of control

Compound: COC(=O)/N=C/CCC(O)NC(=O)OC (configuration not stated)
- T/C [15]: 98 % of control
- T/C [16]: 101 % of control
- T/C (dose: 200.0 mg/kg/injection, schedule: Q01DX005 (ip), vehicle: saline with Tween-80): 92 % of control

Compound: C=C1C(=O)OC2/C=C(/C)C3OC3/C=C(/C(=O)OC)C(OC(C)=O)C(OC(=O)C3(C)OC3C)C12 (configuration not stated)
- T/C (dose: 1.5 mg/kg/injection, schedule: Q01DX009 (ip), vehicle: Klucel (hydroxypropylcellulose) (HPC)): 124 % of control
- T/C (dose: 12.0 mg/kg/injection, schedule: Q01DX009 (ip), vehicle: Klucel (hydroxypropylcellulose) (HPC)): 86 % of control

Compound: O=C1CSC(=O)N1c1ccc(Cl)c(Cl)c1
- T/C (dose: 12.5 mg/kg/injection, schedule: Q01DX009 (ip), vehicle: saline): 94 % of control
- T/C (dose: 25.0 mg/kg/injection, schedule: Q01DX009 (ip), vehicle: saline): 89 % of control
- T/C [10]: 95 % of control
- T/C [7]: 88 % of control
- T/C [11]: 87 % of control

Compound: FC(F)(F)c1cccc(N=Cc2ccc(C=Nc3cccc(C(F)(F)F)c3)cc2)c1
- T/C [7]: 99 % of control
- T/C [8]: 99 % of control
- T/C [9]: 97 % of control

Compound: COc1cc2c(C)c[n+]3cc4cc5c(OC)c(OC)ccc5cc4cc3c2cc1OC (tested in a mixture with another compound)
- T/C (dose: 3.13 mg/kg/injection, schedule: Q04DX003 (ip), vehicle: distilled water + Tween-80): 117 % of control
- T/C (dose: 6.25 mg/kg/injection, schedule: Q04DX003 (ip), vehicle: distilled water + Tween-80): 117 % of control
- T/C (dose: 12.5 mg/kg/injection, schedule: Q04DX003 (ip), vehicle: distilled water + Tween-80): 111 % of control
- T/C (dose: 25.0 mg/kg/injection, schedule: Q04DX003 (ip), vehicle: distilled water + Tween-80): 99 % of control

Compound: CC(=O)Nc1nc(N)nc2c1CC(N(Cc1ccc(Cl)cc1)C(C)=O)CC2 (configuration not stated)
- T/C [10]: 108 % of control
- T/C [11]: 119 % of control
- T/C [12]: 154 % of control

Compound: O=P(C(=S)Nc1ccccc1Cl)(c1ccccc1)c1ccccc1
- T/C (dose: 50.0 mg/kg/injection, schedule: Q01DX009 (ip), vehicle: Klucel (hydroxypropylcellulose) (HPC)): 100 % of control
- T/C (dose: 100.0 mg/kg/injection, schedule: Q01DX009 (ip), vehicle: Klucel (hydroxypropylcellulose) (HPC)): 91 % of control
- T/C (dose: 200.0 mg/kg/injection, schedule: Q01DX009 (ip), vehicle: Klucel (hydroxypropylcellulose) (HPC)): 90 % of control

Compound: COC1=C(OC)C(=O)C=CC1=O
- T/C (dose: 0.78 mg/kg/injection, schedule: Q01DX009 (ip), vehicle: saline): 101 % of control
- T/C (dose: 1.56 mg/kg/injection, schedule: Q01DX009 (ip), vehicle: saline): 94 % of control
- T/C [13]: 96 % of control
- T/C [14]: 102 % of control

Compound: N#C/C(C(N)=O)=C(\C(=O)c1ccccc1)c1ccccc1
- T/C [15]: 99 % of control
- T/C [16]: 96 % of control
